The record followed here is US9108944B2, “Androgen receptor modulators and uses thereof” (ARAGON PHARMACEUTICALS, INC., priority 2010, dated 2015).

One test addresses T1, AR-VP16 (Homo sapiens, UniProt P10275).
T1 sequence (P10275 560-920 limits assumed): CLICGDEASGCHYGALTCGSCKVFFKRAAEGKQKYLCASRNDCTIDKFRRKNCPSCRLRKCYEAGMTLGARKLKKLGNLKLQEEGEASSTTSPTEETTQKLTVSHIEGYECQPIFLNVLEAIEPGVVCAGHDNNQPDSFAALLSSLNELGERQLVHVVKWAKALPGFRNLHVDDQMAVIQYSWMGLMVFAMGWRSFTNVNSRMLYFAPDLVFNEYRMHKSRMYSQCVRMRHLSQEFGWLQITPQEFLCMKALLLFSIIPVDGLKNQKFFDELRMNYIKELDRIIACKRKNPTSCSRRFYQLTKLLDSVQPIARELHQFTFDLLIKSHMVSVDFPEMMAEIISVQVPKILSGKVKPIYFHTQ
Kind of test: AR-VP16 DNA Binding Assay, agonist mode (HepG2 cells). In kind it is cell-based. The conditions noted are these: Emax >20x DMSO control = agonist.
Turning to `N#Cc1ncc(N2C(=O)C3(CCC3)N(c3ccc(Oc4ccncc4)cc3)C2=S)cc1C(F)(F)F` [Compound 40, 5-(8-Oxo-5-(4-(pyridin-4-yloxy)phenyl)-6-thioxo-5,7-diazaspiro[3.4]octan-7-yl)-3-(trifluoromethyl)picolinonitrile], the “ARVP16 DNA Binding Assay (Agonist mode): Agonist?” value (shortened to “ARVP16 DNA Binding Assay”) is given as “No (Agonist defined as a compound whose Emax in the ARVP16 DNA Binding Assay (Agonist mode) is >20x DMSO control)”. Take `Cc1cc(N2C(=O)C3(CCC3)N(c3ccc(O)c(F)c3)C2=S)cnc1C#N` [Compound 54, 5-(5-(3-Fluoro-4-hydroxyphenyl)-8-oxo-6-thioxo-5,7-diazaspiro[3.4]octan-7-yl)-3-methylpicolinonitrile]: the “ARVP16 DNA Binding Assay” value is “No (Agonist defined as a compound whose Emax in the ARVP16 DNA Binding Assay (Agonist mode) is >20x DMSO control)”.

As for `CN1CCC(Oc2ccc(N3C(=S)N(c4cnc(C#N)c(C(F)(F)F)c4)C(=O)C34CCC4)cc2)CC1` [Compound 129, 5-(5-(4-((1-Methylpiperidin-4-yl)oxy)phenyl)-8-oxo-6-thioxo-5,7-diazaspiro[3.4]octan-7-yl)-3-(trifluoromethyl)picolinonitrile], the “ARVP16 DNA Binding Assay” value is on record as “No (Agonist defined as a compound whose Emax in the ARVP16 DNA Binding Assay (Agonist mode) is >20x DMSO control)”.

Another test addresses T1, AR-VP16. Kind of test: AR-VP16 DNA Binding Assay, antagonist mode (HepG2 cells, 0.1 nM R1881). Type of test: cell-based.
Settings: not given
Summed up:
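HepG2 cells transiently transfected with AR-VP16 (Lipofectin), incubated overnight, then treated with compound in RPMI with charcoal-stripped serum. Antagonist mode adds R1881 at 0.1 nM final. Cells lysed after 48 h incubation for read-out.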
Regarding `N#Cc1ncc(N2C(=O)C3(CCC3)N(c3ccc(Oc4ccncc4)cc3)C2=S)cc1C(F)(F)F` [Compound 40, 5-(8-Oxo-5-(4-(pyridin-4-yloxy)phenyl)-6-thioxo-5,7-diazaspiro[3.4]octan-7-yl)-3-(trifluoromethyl)picolinonitrile], the IC50 is below 1000 nM. Still for that read-out and setting: the result for `Cc1cc(N2C(=O)C3(CCC3)N(c3ccc(O)c(F)c3)C2=S)cnc1C#N` [Compound 54, 5-(5-(3-Fluoro-4-hydroxyphenyl)-8-oxo-6-thioxo-5,7-diazaspiro[3.4]octan-7-yl)-3-methylpicolinonitrile] reads above 1000 nM. The same measure, in the same setting: for `CNC(=O)c1ccc(N2C(=S)N(c3cnc(C#N)c(C)c3)C(=O)C23CCC3)cc1C(F)(F)F` [Compound 109, 4-(7-(6-Cyano-5-methylpyridin-3-yl)-8-oxo-6-thioxo-5,7-diazaspiro[3.4]octan-5-yl)-N-methyl-2-(trifluoromethyl)benzamide] the value was below 1000 nM; for `CN1CCN(C(=O)COc2ccc(N3C(=S)N(c4cnc(C#N)c(C(F)(F)F)c4)C(=O)C34CCC4)cc2F)CC1` [Compound 309, 5-(5-(3-Fluoro-4-(2-(4-methylpiperazin-1-yl)-2-oxoethoxy)phenyl)-8-oxo-6-thioxo-5,7-diazaspiro[3.4]octan-7-yl)-3-(trifluoromethyl)picolinonitrile], below 1000 nM. The same measure, in the same setting: for `N#Cc1ccc(N2C(=O)C3(CCC3)N(c3ccc(O)c(F)c3)C2=S)c2cccnc12` [Compound 55, 5-(5-(3-Fluoro-4-hydroxyphenyl)-8-oxo-6-thioxo-5,7-diazaspiro[3.4]octan-7-yl)quinoline-8-carbonitrile] the value was below 1000 nM; for `C#CCNC(=O)c1ccc(N2C(=S)N(c3cnc(C#N)c(C(F)(F)F)c3)C(=O)C23CCC3)cc1F` [Compound 281, 4-(7-(6-Cyano-5-(trifluoromethyl)pyridin-3-yl)-8-oxo-6-thioxo-5,7-diazaspiro[3.4]octan-5-yl)-2-fluoro-N-(prop-2-yn-1-yl)benzamide], below 1000 nM; for `Cc1cc(N2C(=O)C3(CCC3)N(c3ccc(OCCN4CCN(CC(F)(F)F)CC4)cc3)C2=S)cnc1C#N` [Compound 199, 3-Methyl-5-(8-oxo-6-thioxo-5-(4-(2-(4-(2,2,2-trifluoroethyl)piperazin-1-yl)ethoxy)phenyl)-5,7-diazaspiro[3.4]octan-7-yl)picolinonitrile], below 1000 nM. As to `N#Cc1ncc(N2C(=O)C3(CCC3)N(c3ccc4[nH]ncc4c3)C2=S)cc1C(F)(F)F` [Compound 87, 5-(5-(1H-Indazol-5-yl)-8-oxo-6-thioxo-5,7-diazaspiro[3.4]octan-7-yl)-3-(trifluoromethyl)picolinonitrile], the IC50 was below 1000 nM. The same measure, in the same setting: for `N#Cc1ncc(N2C(=O)C3(CCC3)N(c3ccc(-c4ccccc4)cc3)C2=S)cc1C(F)(F)F` [Compound 13, 5-(5-([1,1′-Biphenyl]-4-yl)-8-oxo-6-thioxo-5,7-diazaspiro[3.4]octan-7-yl)-3-(trifluoromethyl)picolinonitrile] the value was below 1000 nM; for `N#Cc1ncc(N2C(=O)C3(CCC3)N(c3ccccc3)C2=S)cc1C(F)(F)F` [Compound 48, 5-(8-Oxo-5-phenyl-6-thioxo-5,7-diazaspiro[3.4]octan-7-yl)-3-(trifluoromethyl)picolinonitrile], below 1000 nM; for `N#Cc1ncc(N2C(=O)C3(CCC3)N(c3ccc(C(=O)NCc4cccs4)c(F)c3)C2=S)cc1C(F)(F)F` [Compound 260, 4-(7-(6-Cyano-5-(trifluoromethyl)pyridin-3-yl)-8-oxo-6-thioxo-5,7-diazaspiro[3.4]octan-5-yl)-2-fluoro-N-(thiophen-2-ylmethyl)benzamide], below 1000 nM. The same measure, in the same setting: for `CN1CCN(CCCOc2ccc(N3C(=S)N(c4cnc(C#N)c(C(F)(F)F)c4)C(=O)C34CCC4)cc2F)CC1` [Compound 157, 5-(5-(3-Fluoro-4-(3-(4-methylpiperazin-1-yl)propoxy)phenyl)-8-oxo-6-thioxo-5,7-diazaspiro[3.4]octan-7-yl)-3-(trifluoromethyl)picolinonitrile] the value was below 1000 nM. As for `N#Cc1ncc(N2C(=O)C3(CCC3)N(c3ccc(OC4CCN(CCO)CC4)cc3)C2=S)cc1C(F)(F)F` [Compound 218, 5-(5-(4-((1-(2-hydroxyethyl)piperidin-4-yl)oxy)phenyl)-8-oxo-6-thioxo-5,7-diazaspiro[3.4]octan-7-yl)-3-(trifluoromethyl)picolinonitrile], the IC50 was below 1000 nM. Regarding `N#Cc1ncc(N2C(=O)C3(CCC3)N(c3ccc(OCCC(F)(F)C(F)(F)F)c(F)c3)C2=S)cc1C(F)(F)F` [Compound 139, 5-(5-(3-Fluoro-4-(3,3,4,4,4-pentafluorobutoxy)phenyl)-8-oxo-6-thioxo-5,7-diazaspiro[3.4]octan-7-yl)-3-(trifluoromethyl)picolinonitrile], the IC50 was below 1000 nM. For the compound `CNS(=O)(=O)c1ccc(N2C(=S)N(c3cnc(C#N)c(C(F)(F)F)c3)C(=O)C23CCC3)cc1` [Compound 120, 4-(7-(6-Cyano-5-(trifluoromethyl)pyridin-3-yl)-8-oxo-6-thioxo-5,7-diazaspiro[3.4]octan-5-yl)-N-methylbenzenesulfonamide], the IC50 was above 1000 nM. The same measure, in the same setting: the result for `CN1CCC(Oc2ccc(N3C(=S)N(c4cnc(C#N)c(C(F)(F)F)c4)C(=O)C3(C)C)cc2)CC1` [Compound 196, 5-(4,4-Dimethyl-3-(4-((1-methylpiperidin-4-yl)oxy)phenyl)-5-oxo-2-thioxoimidazolidin-1-yl)-3-(trifluoromethyl)picolinonitrile] reads below 1000 nM; that for `CC(C)(C)OC(=O)N1CCN(c2ccc(N3C(=S)N(c4cnc(C#N)c(C(F)(F)F)c4)C(=O)C34CCC4)cc2)CC1` [Compound 119, tert-Butyl 4-(4-(7-(6-cyano-5-(trifluoromethyl)pyridin-3-yl)-8-oxo-6-thioxo-5,7-diazaspiro[3.4]octan-5-yl)phenyl)piperazine-1-carboxylate], below 1000 nM; that for `CNC(=O)c1ccc(N2C(=S)N(c3cnc(C#N)c(C)c3)C(=O)C2(C)C)cc1F` [Compound 47, 4-(3-(6-Cyano-5-methylpyridin-3-yl)-5,5-dimethyl-4-oxo-2-thioxoimidazolidin-1-yl)-2-fluoro-N-methylbenzamide], below 1000 nM. In turn, `N#Cc1ncc(N2C(=O)C3(CCC3)N(c3cc(F)ccc3F)C2=S)cc1C(F)(F)F` [Compound 74, 5-(5-(2,5-Difluorophenyl)-8-oxo-6-thioxo-5,7-diazaspiro[3.4]octan-7-yl)-3-(trifluoromethyl)picolinonitrile] came in with an IC50 below 1000 nM.

Regarding `CNC(=O)c1ccc(N2C(=S)N(c3cnc(C#N)c(C(F)(F)F)c3)C(=O)C23CCC3)cc1` [Compound 79, 4-(7-(6-Cyano-5-(trifluoromethyl)pyridin-3-yl)-8-oxo-6-thioxo-5,7-diazaspiro[3.4]octan-5-yl)-N-methylbenzamide], the IC50 was below 1000 nM. `N#Cc1ncc(N2C(=O)C3(CCC3)N(c3ccc(Br)c(F)c3)C2=S)cc1C(F)(F)F` [Compound 4, 5-(5-(4-Bromo-3-fluorophenyl)-8-oxo-6-thioxo-5,7-diazaspiro[3.4]octan-7-yl)-3-(trifluoromethyl)picolinonitrile] registered an IC50 below 1000 nM. `N#Cc1ncc(N2C(=O)C3(CCC3)N(c3ccc(OCCCN4CCCC4)c(F)c3)C2=S)cc1C(F)(F)F` [Compound 185, 5-(5-(3-Fluoro-4-(3-(pyrrolidin-1-yl)propoxy)phenyl)-8-oxo-6-thioxo-5,7-diazaspiro[3.4]octan-7-yl)-3-(trifluoromethyl)picolinonitrile] returned an IC50 below 1000 nM. Take `Cc1ccc(N2C(=S)N(c3ccc(C#N)c4ncccc34)C(=O)C23CCC3)cc1` [Compound 36, 5-(8-Oxo-6-thioxo-5-(p-tolyl)-5,7-diazaspiro[3.4]octan-7-yl)quinoline-8-carbonitrile]: the IC50 was below 1000 nM.

`CCCNC(=O)c1ccc(N2C(=S)N(c3cnc(C#N)c(C(F)(F)F)c3)C(=O)C23CCC3)cc1F` [Compound 278, 4-(7-(6-Cyano-5-(trifluoromethyl)pyridin-3-yl)-8-oxo-6-thioxo-5,7-diazaspiro[3.4]octan-5-yl)-2-fluoro-N-propylbenzamide] came in with an IC50 below 1000 nM.

Consider `COc1ccc(N2C(=S)N(c3cnc(C#N)c(C(F)(F)F)c3)C(=O)C23CCC3)cc1` [Compound 204, 5-(5-(4-Methoxyphenyl)-8-oxo-6-thioxo-5,7-diazaspiro[3.4]octan-7-yl)-3-(trifluoromethyl)picolinonitrile], for which the IC50 is below 1000 nM.
